From ChEMBL document CHEMBL5120927, “LEGO-Lipophosphonoxins: A Novel Approach in Designing Membrane Targeting Antimicrobials” (J Med Chem, 2022)

Columns and labels:
[1] = system: Escherichia coli; assay: Antibacterial activity against multidrug-resistant Escherichia coli CE5556 expressing CTX-M-15 assessed as reduction in microbial growth incubated for 24 hrs by microdilution assay; format: functional
[2] = system: Staphylococcus aureus; assay: Antibacterial activity against methicillin resistant Staphylococcus aureus 4591/A assessed as reduction in microbial growth incubated for 24 hrs by microdilution assay; format: functional
[3] = system: Pseudomonas aeruginosa; assay: Antibacterial activity against Pseudomonas aeruginosa ATCC 27853 = CCM 3955 assessed as inhibition of bacterial growth incubated for 24 hrs by microdilution assay; format: functional
[4] = system: Staphylococcus epidermidis; assay: Antibacterial activity against Staphylococcus epidermidis CCM 7221 assessed as inhibition of bacterial growth incubated for 24 hrs by microdilution assay; format: functional
[5] = system: Pseudomonas aeruginosa; assay: Antibacterial activity against multidrug-resistant Pseudomonas aeruginosa assessed as reduction in microbial growth incubated for 24 hrs by microdilution assay; format: functional
[6] = Hemolytic activity in human RBC assessed as haemoglobin release measured after 3 hr; format: toxicity, cell-based, Erythrocyte; settings: red blood cells (erythrocytes)
[7] = system: Enterococcus faecalis; assay: Antibacterial activity against Enterococcus faecalis ATCC 29212 = CCM 4224 assessed as inhibition of bacterial growth incubated for 24 hrs by microdilution assay; format: functional
[8] = Gradient chromatographic hydrophobicity index of the compound at pH 3.7 by HPLC analysis; format: ADME
[9] = system: Staphylococcus aureus; assay: Antibacterial activity against Staphylococcus aureus ATCC 29213 = CCM 4223 assessed as inhibition of bacterial growth incubated for 24 hrs in presence of BSA by microdilution assay; format: functional
[10] = system: Enterococcus faecium; assay: Antibacterial activity against vancomycin resistant Enterococcus faecium 419/ANA assessed as reduction in microbial growth incubated for 24 hrs by microdilution assay; format: functional
[11] = system: Escherichia coli; assay: Antibacterial activity against Escherichia coli ATCC 25922 = CCM 3954 assessed as inhibition of bacterial growth incubated for 24 hrs by microdilution assay; format: functional
[12] = system: Staphylococcus aureus; assay: Antibacterial activity against Staphylococcus aureus ATCC 29213 = CCM 4223 assessed as inhibition of bacterial growth incubated for 24 hrs by microdilution assay; format: functional
[13] = system: Escherichia coli; assay: Antibacterial activity against Escherichia coli ATCC 25922 = CCM 3954 assessed as inhibition of bacterial growth incubated for 24 hrs in presence of BSA by microdilution assay; format: functional

Structure (SMILES) | MIC [1] [µg/mL] | MIC [2] [µg/mL] | MIC [3] [µg/mL] | MIC [4] [µg/mL] | MIC [5] [µg/mL] | HC50 at 3 h [6] [µg/mL] | MIC [7] [µg/mL] | CHI [8] | MIC [9] [µg/mL] | MIC [10] [µg/mL] | MIC [11] [µg/mL] | MIC [12] [µg/mL] | MIC [13] [µg/mL]
CCCCC/C=C\CCCOP(=O)(CCN(CCCN)CCCN)OCCCOP(=O)(CCN(CCCN)CCCN)OCCC/C=C\CCCCC.Cl.Cl.Cl.Cl.Cl.Cl (configuration not stated) | 1 | 1 | 2 | 1 | 2 | 271 | 2 | 39.8 | 2 | 8 | 1 | 1 | 2
CCCCCOP(=O)(CCN(CCCN)CCCN)OCCCCCCCCOP(=O)(CCN(CCCN)CCCN)OCCCCC.Cl.Cl.Cl.Cl.Cl.Cl (configuration not stated) | > 128 | 8 | > 128 | 4 | 128 | > 100 | > 128 | 27.5 | 32 | > 128 | > 128 | 16 | > 128
Cl.Cl.Cl.Cl.Cl.Cl.NCCCN(CCCN)CCP(=O)(OCCCCCCOP(=O)(CCN(CCCN)CCCN)OCCC12CC3CC(CC(C3)C1)C2)OCCC12CC3CC(CC(C3)C1)C2 (configuration not stated) | 1 | 0.5 | 1 | 0.5 | 2 | 72.2 | 1 | 38.4 | 0.2 | 2 | > 128 | 0.5 | 1
CCCCC/C=C\CCOP(=O)(CCN(CCCNC(=N)N)CCCNC(=N)N)OCCCCCOP(=O)(CCN(CCCNC(=N)N)CCCNC(=N)N)OCC/C=C\CCCCC.Cl.Cl.Cl.Cl.Cl.Cl (configuration not stated) | 1 | 1 | 8 | 1 | 8 | 121 | 4 | 36.4 | 1 | 8 | 1 | 1 | 1
CCCCCCCOP(=O)(CCN(CCCN)CCCN)OCCCCOP(=O)(CCN(CCCN)CCCN)OCCCCCCC.Cl.Cl.Cl.Cl.Cl.Cl (configuration not stated) | 64 | 4 | 128 | 2 | 128 | > 200 | 64 | 30.7 | 8 | > 128 | 8 | 4 | 32
CCCCCCCCOP(=O)(CCN(CCN)CCN)OCCCCCCCCOP(=O)(CCN(CCN)CCN)OCCCCCCCC.Cl.Cl.Cl.Cl.Cl.Cl (configuration not stated) | 1 | 3 | 1 | 0.2 | 1 | 19 | 1 | 45.2 | 0.2 | 2 | 64 | 0.5 | 5
CCCCOP(=O)(CCN(CCCN)CCCN)OCCCCCCCCCCOP(=O)(CCN(CCCN)CCCN)OCCCC.Cl.Cl.Cl.Cl.Cl.Cl (configuration not stated) | > 128 | 8 | > 128 | 4 | > 128 | > 500 | 128 | 27.3 | 16 | > 128 | > 128 | 16 | > 128
CCC/C=C\CCOP(=O)(CCN(CCCN)CCCN)OCCCCCCCOP(=O)(CCN(CCCN)CCCN)OCC/C=C\CCC.Cl.Cl.Cl.Cl.Cl.Cl (configuration not stated) | 16 | 4 | 128 | 2 | 128 | > 200 | 64 | 31.3 | 8 | 128 | 4 | 4 | 64
Cl.Cl.Cl.Cl.Cl.Cl.N=C(N)NCCCN(CCCNC(=N)N)CCP(=O)(OCCCCCCCOP(=O)(CCN(CCCNC(=N)N)CCCNC(=N)N)OCCCC(F)(F)F)OCCCC(F)(F)F (configuration not stated) | 128 | 8 | > 128 | 8 | > 128 | > 200 | > 128 | 25.2 | 16 | > 128 | 1 | 8 | 128
CCC/C=C\CCOP(=O)(CCN(CCCN)CCCN)OCCCCCOP(=O)(CCN(CCCN)CCCN)OCC/C=C\CCC.Cl.Cl.Cl.Cl.Cl.Cl (configuration not stated) | > 128 | 32 | > 128 | 128 | > 128 | > 250 | > 128 | 28.2 | 64 | > 128 | 128 | 32 | 128
CCCCCCCCCCOP(=O)(CCN(CCCN)CCCN)OCCCCCCOP(=O)(CCN(CCCN)CCCN)OCCCCCCCCCC.Cl.Cl.Cl.Cl.Cl.Cl (configuration not stated) | 1 | 0.5 | 1 | 0.5 | 2 | 16 | 1 | 44 | 0.2 | 1 | 1 | 1 | 1
CC/C=C\CCCOP(=O)(CCN(CCCN)CCCN)OCCCCCOP(=O)(CCN(CCCN)CCCN)OCCC/C=C\CC.Cl.Cl.Cl.Cl.Cl.Cl (configuration not stated) | > 128 | 32 | > 128 | 8 | > 128 | > 200 | > 128 | 27.7 | 64 | > 128 | 128 | 16 | > 128
CC/C=C\CCCOP(=O)(CCN(CCCN)CCCN)OCCCCCCOP(=O)(CCN(CCCN)CCCN)OCCC/C=C\CC.Cl.Cl.Cl.Cl.Cl.Cl (configuration not stated) | 64 | 16 | > 128 | 4 | > 128 | > 200 | 128 | 2.4 | 16 | > 128 | 64 | 8 | 128
Cl.Cl.Cl.Cl.Cl.Cl.NCCCN(CCCN)CCP(=O)(OCCCCCCOP(=O)(CCN(CCCN)CCCN)OCCc1ccccc1)OCCc1ccccc1 (configuration not stated) | > 128 | 64 | > 128 | 64 | > 128 | > 200 | > 128 | 11.9 | > 128 | > 128 | > 128 | 64 | > 128
Cl.Cl.Cl.Cl.Cl.Cl.N=C(N)NCCCN(CCCNC(=N)N)CCP(=O)(OCCCCCOP(=O)(CCN(CCCNC(=N)N)CCCNC(=N)N)OCC12CC3CC(CC(C3)C1)C2)OCC12CC3CC(CC(C3)C1)C2 (configuration not stated) | 1 | 1 | 8 | 0.5 | 8 | 259 | 4 | 333 | 0.5 | 8 | 1 | 1 | 2
Cl.Cl.Cl.Cl.Cl.Cl.NCCCN(CCCN)CCP(=O)(OCCCCCCCCCCCCOP(=O)(CCN(CCCN)CCCN)OCCc1ccccc1)OCCc1ccccc1 (configuration not stated) | 16 | 4 | 8 | 0.5 | 8 | 358 | 4 | 34.8 | 2 | 32 | 4 | 1 | 8
CCCCOP(=O)(CCN(CCCN)CCCN)OCCCCCCCCOP(=O)(CCN(CCCN)CCCN)OCCCC.Cl.Cl.Cl.Cl.Cl.Cl (configuration not stated) | > 128 | > 128 | > 128 | 64 | > 128 | > 100 | > 128 | 11 | > 128 | > 128 | 128 | > 128 | > 128
CCCC/C=C\CCOP(=O)(CCN(CCCN)CCCN)OCCCOP(=O)(CCN(CCCN)CCCN)OCC/C=C\CCCC.Cl.Cl.Cl.Cl.Cl.Cl (configuration not stated) | 128 | 16 | 64 | 8 | 128 | > 200 | 128 | 31.3 | 32 | > 128 | 128 | 16 | 128
CCCCCOP(=O)(CCN(CCN)CCN)OCCCCCCCCOP(=O)(CCN(CCN)CCN)OCCCCC.Cl.Cl.Cl.Cl.Cl.Cl (configuration not stated) | > 128 | 8 | > 128 | 2 | > 128 | > 200 | > 128 | 34.7 | 8 | > 128 | 2 | 8 | > 128
